Where two headings read alike, the source gives them in different places.
Columns and labels:
[1] = target: T1, RON Kinase Enzyme (Homo sapiens, UniProt Q04912); test: Kinase ADP-Glo inhibition assay; type: biochemical; conditions: 25 μM ATP
T1 construct: purchased Promega V3921
Description: • Assay Buffer • 40 mM Tris-HCl pH7.5, 20 mM MgCl2, 0.1 mg/mL BSA • RON Kinase Enzyme System (Promega #: V3921) • Axltide Substrate • RON Kinase Enzyme • ADP-Glo™ Assay (Promega #: V9101) • ATP, 10 mM • ADP-Glo™ Reagent • Kinase Detection Reagent • 384-well white assay plates
A ten point serial dilution of compound was prepared at 5× concentration in assay buffer with the final assay concentrations starting at 30 μM, 10 μM, 3 μM, 1 μM . . . 0 μM. Enzyme, substrate, and ATP were used at 25 ng, 200 ng and 25 μM, respectively. The assay plate was set up by mixing the components in a total reaction volume of 10 μL per well. The plate was centrifuged gently for 10 seconds and incubated at room temperature (RT) for 60 minutes in the dark. The ADP-Glo Reagent and kinase detection reagent were added and incubated as recommended. The reaction was quantified by measuring luminescence on the Perkin Elmer Envision plate reader. Data was analyzed using Graphpad Prism 7 software.

[2] = target: RON/MST1R (Homo sapiens, UniProt Q04912); test: Ron tyrosine kinase inhibition assay (10 dose IC50 mode, 10 μM ATP); type: biochemical; conditions: read-out: Compound IC50
Description: Compounds were tested in 10 dose IC50 mode with 3-fold serial dilution starting at 100 μM. […] Reactions were carried out at 10 μM ATP. Data pages include raw data, % Enzyme activity (relative to DMSO controls) and curve fits. Curve fits were performed where the enzyme activities at the highest concentration of compounds were less than 65%.
IC50 values may be determined using GraphPad Prism 5 software. The data may be entered as an X-Y plot into the software as percent inhibition for each concentration of the drug. The concentration values of the drug may be log transformed and the nonlinear regression may be carried out using the “sigmoidal dose-response (variable slope)” option within the GraphPad software to model the data and calculate IC50 values. The IC50 values reported are the concentration of drug at which 50% inhibition was reached.

[3] = Pharmacokinetic (PK) study of phosphate conjugates of BMS-777607 in male swiss albino mice; type: in vivo; conditions: 2 mg/kg single intravenous bolus; for AUC(0-inf) / AUC(0-t) / C0 / clearance / half-life / Vd / Kp: mouse; for Vd: read-out: VSS; for Kp: read-out: bone to plasma ratios (AUClast)
Description: For extended time points (>24 hrs), BID dosing was done 8 hr apart.
The study was performed using sparse design to obtain composite profile (n=3/time point) as summarized in the table1. Blood and whole bone with marrow were collected at predetermined time points. At each time point, about 120 μL of blood was collected by retro-orbital sinus puncture into a labeled microfuge tube containing 200 mM K2EDTA solution (20 μL per mL of blood). The blood samples were processed within 30 minutes to obtain the plasma samples. At respective time points, blood samples were collected and animals were euthanized to harvest whole femur bone (bone with marrow). All plasma and bone with marrow samples were stored at −80° C.
The plasma and bone with bone marrow homogenate samples were analyzed using a fit-for purpose LC-MS/MS method with a lower limit of quantification (LLOQ) of 1.00 ng/ml (plasma) and 11.0 ng/g (bone). In some instances, bone marrow was separated from bone and analyzed independently. The pharmacokinetic parameters of the drugs were calculated using the non-compartmental analysis tool of validated Phoenix® WinNonlin® software (version 8.0).

[4] = male, Swiss Albino, in vivo, iv, 2 mg/kg, Bone with Bone marrow
[5] = male, Swiss Albino, in vivo, iv, 2 mg/kg, Plasma
[6] = in vivo, Plasma, male Swiss Albino mice

T1 sequence (Q04912 25-1400): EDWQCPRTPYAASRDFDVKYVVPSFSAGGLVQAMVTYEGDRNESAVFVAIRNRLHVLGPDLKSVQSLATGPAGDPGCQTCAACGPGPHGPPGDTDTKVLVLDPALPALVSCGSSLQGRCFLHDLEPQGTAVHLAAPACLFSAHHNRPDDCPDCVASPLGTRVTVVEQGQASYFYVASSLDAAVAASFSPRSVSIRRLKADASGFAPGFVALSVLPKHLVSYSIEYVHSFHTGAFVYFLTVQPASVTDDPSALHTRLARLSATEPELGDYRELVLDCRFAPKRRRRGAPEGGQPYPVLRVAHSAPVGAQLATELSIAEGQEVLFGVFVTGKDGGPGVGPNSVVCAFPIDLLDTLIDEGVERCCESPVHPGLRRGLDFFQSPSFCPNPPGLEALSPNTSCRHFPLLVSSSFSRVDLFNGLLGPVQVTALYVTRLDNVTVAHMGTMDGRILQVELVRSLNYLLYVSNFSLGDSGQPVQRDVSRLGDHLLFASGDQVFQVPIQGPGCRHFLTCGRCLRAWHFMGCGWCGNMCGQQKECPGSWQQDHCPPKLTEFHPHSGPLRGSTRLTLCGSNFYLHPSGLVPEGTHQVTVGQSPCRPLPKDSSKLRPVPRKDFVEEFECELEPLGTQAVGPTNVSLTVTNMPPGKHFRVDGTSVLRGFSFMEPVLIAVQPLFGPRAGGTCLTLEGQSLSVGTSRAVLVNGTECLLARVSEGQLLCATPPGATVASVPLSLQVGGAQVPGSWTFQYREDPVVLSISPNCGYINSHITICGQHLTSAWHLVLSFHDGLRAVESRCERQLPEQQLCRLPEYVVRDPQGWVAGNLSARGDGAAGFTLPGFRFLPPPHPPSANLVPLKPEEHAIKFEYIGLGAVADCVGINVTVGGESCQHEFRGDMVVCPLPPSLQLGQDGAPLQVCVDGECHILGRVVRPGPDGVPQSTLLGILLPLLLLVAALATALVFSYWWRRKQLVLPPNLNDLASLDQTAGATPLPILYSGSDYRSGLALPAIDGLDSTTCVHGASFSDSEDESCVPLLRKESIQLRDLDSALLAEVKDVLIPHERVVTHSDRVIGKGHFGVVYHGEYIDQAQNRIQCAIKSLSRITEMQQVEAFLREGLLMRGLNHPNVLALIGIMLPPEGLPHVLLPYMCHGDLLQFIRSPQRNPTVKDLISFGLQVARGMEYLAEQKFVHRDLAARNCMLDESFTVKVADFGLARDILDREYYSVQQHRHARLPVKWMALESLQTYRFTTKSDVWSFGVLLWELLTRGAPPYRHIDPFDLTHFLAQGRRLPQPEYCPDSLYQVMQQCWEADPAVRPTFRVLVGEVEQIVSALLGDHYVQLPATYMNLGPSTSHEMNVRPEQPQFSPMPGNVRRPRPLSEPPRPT
RON/MST1R, sequence (Q04912 25-1400): as above

CCOc1ccn(-c2ccc(F)cc2)c(=O)c1C(=O)Nc1ccc(Oc2ccnc(N)c2Cl)c(F)c1 [BMS-777607, N-(4-((2-amino-3-chloropyridin-4-yl)oxy)-3-fluorophenyl)-4-ethoxy-1-(4-fluorophenyl)-2-oxo-1,2-dihydropyridine-3-carboxamide, reference compound]
IC50 [1]: 18 nM
IC50 [2]: 17.2 nM
AUC(0-inf) ([3]; Plasma): 1690 ng·h/mL
AUC(0-t) ([3]; Plasma): 1690 ng·h/mL
C0 ([3]; Plasma): 3610 ng/mL
clearance ([3]; Plasma): 19.7 mL/min/kg
half-life ([3]; Plasma): 3.42 h
Vd ([3]; Plasma): 1.42 L/kg
AUC(0-t) ([3]; bone (without marrow), Bone only): 296 ng·h/mL
Kp ([3]; bone / plasma): 0.17

CCOc1ccn(-c2ccc(F)cc2)c(=O)c1C(=O)Nc1ccc(Oc2ccnc(NC(P(=O)(O)O)P(=O)(O)O)c2Cl)c(F)c1 [Compound 1, (((3-chloro-4-(4-(4-ethoxy-1-(4-fluorophenyl)-2-oxo-1,2-dihydropyridine-3-carboxamido)-2-fluorophenoxy)pyridin-2-yl)amino)methylene)diphosphonic acid]
IC50 [1]: 13400 nM
IC50 [2]: 13400 nM

CCOc1ccn(-c2ccc(F)cc2)c(=O)c1C(=O)Nc1ccc(Oc2ccnc(NC(P(=O)(OCC)OCC)P(=O)(OCC)OCC)c2Cl)c(F)c1 [Compound 9, tetraethyl (((3-chloro-4-(4-(4-ethoxy-1-(4-fluorophenyl)-2-oxo-1,2-dihydropyridine-3-carboxamido)-2-fluorophenoxy)pyridin-2-yl)amino)methylene)bis(phosphonate)]
IC50 [1]: 33800 nM

Nc1nccc(Oc2ccc(NC(=O)c3c(OCP(=O)([O-])[O-])ccn(-c4ccc(F)cc4)c3=O)cc2F)c1Cl.[Na+].[Na+] [Compound 10, (((3-((4-((2-amino-3-chloropyridin-4-yl)oxy)-3-fluorophenyl)carbamoyl)-1-(4-fluorophenyl)-2-oxo-1,2-dihydropyridin-4-yl)oxy)methyl)phosphonate]
IC50 [1]: 547 nM
accumulation in bone [3]: accumulated in the bone
AUCinf ([3]; Bone with Bone marrow): 2920 h*ng · h/mL
AUC(0-t) [3, 4]: 2420 ng·h/mL
clearance [3, 4]: 11.4 mL/min/kg
half-life [3, 4]: 1.61 h
Vd [3, 4]: 1.5 L/kg
AUC(0-t) [3, 5]: 9830 ng·h/mL
clearance [3, 5]: 3.36 mL/min/kg
half-life [3, 5]: 0.987 h
Vd [3, 5]: 0.179 L/kg
Kp ([3]; in vivo): 0.25
AUC(0-inf) ([3]; in vivo, Plasma): 9910 ng·h/mL
C0 ([3]; in vivo, Plasma): 16000 ng/mL

CCOc1ccn(-c2ccc(F)c(OCCC(P(=O)(O)O)P(=O)(O)O)c2)c(=O)c1C(=O)Nc1ccc(Oc2ccnc(N)c2Cl)c(F)c1 [Compound 11, sodium (3-(5-(3-((4-((2-amino-3-chloropyridin-4-yl)oxy)-3-fluorophenyl)carbamoyl)-4-ethoxy-2-oxopyridin-1(2H)-yl)-2-fluorophenoxy)propane-1,1-diyl)bis(phosphonate)]
IC50 [1]: 1270 nM

CCOc1ccn(-c2ccc(F)c(OP(=O)(O)O)c2)c(=O)c1C(=O)Nc1ccc(Oc2ccnc(N)c2Cl)c(F)c1 [Compound 12, sodium 5-(3-((4-((2-amino-3-chloropyridin-4-yl)oxy)-3-fluorophenyl)carbamoyl)-4-ethoxy-2-oxopyridin-1(2H)-yl)-2-fluorophenyl phosphate]
IC50 [1]: 58 nM
AUC(0-inf) [3, 6]: 963 ng·h/mL
AUC(0-t) [3, 6]: 959 ng·h/mL
C0 [3, 6]: 4680 ng/mL
clearance [3, 6]: 34.6 mL/min/kg
half-life [3, 6]: 1.17 h
Vd [3, 6]: 0.879 L/kg

CCOc1ccn(-c2ccc(F)c(COP(=O)(O)O)c2)c(=O)c1C(=O)Nc1ccc(Oc2ccnc(N)c2Cl)c(F)c1 [Compound 13, sodium 5-(3-((4-((2-amino-3-chloropyridin-4-yl)oxy)-3-fluorophenyl)carbamoyl)-4-ethoxy-2-oxopyridin-1(2H)-yl)-2-fluorobenzyl phosphate]
IC50 [1]: 2430 nM

Source: patent US20260176295A1, “PHOSPHONATE CONJUGATES AND USES THEREOF” (The Translational Genomics Research Institute, priority 2019, published 2026)
